# Test system: acne papule biopsies of subjects with moderate inflammatory acne of the back
# Test: Large scale gene expression profiling of skin biopsies (Affymetrix U133 Plus 2.0)
# Assay type: in vivo, human
# Procedure: Subjects with moderate inflammatory acne of the back were treated with a 0.005% trifarotene or vehicle cream on dedicated back areas for 27 days, and 4 biopsies were collected on each subject (non-involved skin, acne papule, Trifarotene and vehicle treated site). Large scale gene expression profiling of the biopsies was performed using Affymetrix technology, and treatment specific gene expression profiles were generated using statistical modeling. Clinical investigations were conducted in accordance with the Declaration of Helsinki principles, and the ICH Guideline for Good Clinical Practice. The clinical study received approval from the ethics committee of Brest, France (reference CPP Quest 6-755). This was a post-hoc analysis of data collected from 9 patients aged 18-35 with acne vulgaris (EUDRACT No. 2012-001943-36). In the 4-week open-label clinical study, subjects received once-daily applications of trifarotene 0.005% cream and vehicle cream on the back. Each patient had four biopsies performed, 1 from skin without visible acne lesion (non-involved skin) and three at the site of acne papule, with the following timing: one prior to treatment (day 0), one after vehicle treatment (day 27), and one after trifarotene treatment (day 27). Aubert et al, Br J Dermatol., 2018 August; 179(2):442-456. Samples were collected for large-scale gene expression profiling. Subjects provided written informed consent prior to biopsies. Subjects with moderate inflammatory acne on the back at the screening visit, defined by scores of between 2 and 4 for the whole back, with at least one area scored at 2 and a maximum of three nodules using the ECLA (Acne Lesion Score Scale) scale, were included in the study. Each subject had at least 2 papules 48 hours old, one on each half of the back. Subjects were excluded if they had active skin disease or inflammation other than acne, underlying known conditions which could interfere with study results, history of allergy to local anesthetics and/or topical antiseptics, history of bleeding disorder, or pregnancy/lactation (females). Predefined washout periods were mandated for acne treatments, immunosuppressants, immunomodulators, systemic corticosteroids, and isotretinoin. Study personnel applied treatment to patients' backs with trifarotene cream (right side) or vehicle (left side) once daily for 28 days excluding weekends (n=19 applications). Biopsies of nonlesional areas of trifarotene- and vehicle-treated skin were made under local anaesthesia at day 27 as shown in FIG. 1. Biopsies were stored in RNAlater TissueProtect Tubes (Qiagen, Les Ulis, France). Bioinformatics Analysis: Data analysis was performed using Array Studio software (Omicsoft Corporation, Cary, NC, USA). Affymetrix U133 Plus 2.0 chips (GeneChipTM, Santa Clara, CA, USA) were normalized using the multi-array average (RMA) method (See […], et al. Exploration, normalization, and summaries of high density oligonucleotide array probe level data. Biostatistics, 2003; 4:249-64.) Low expression probe-sets were filtered. Only Affymetrix identifiers with expression ≥2^6 in at least 5 samples in one condition were selected for further statistical analysis, resulting in data for 36245 out of the 54675 probe-sets present on the HG U133 Plus 2.0 array. Mean expression levels were obtained by calculating the geometric means of the RMA-normalized data. A linear model was fitted to the normalized data, and statistical testing of the comparisons of interest were performed using a moderated t-test. Paired-test was used when applicable. P values were adjusted for multiple testing using the Benjamini-Hochberg false discovery rate (FDR) method (See e.g., Benjamini Y, et al., Controlling the false discovery rate in behavior genetics research. Behav Brain Res, 2001; 125:279-84). Candidate differentially expressed genes were selected using a combination of fold-change and […]; genes with absolute fold change>2 and FDA<0.05 were considered as candidate differentially expressed genes. […]
# [1] = lesional skin after 0.005% cream (day 27) vs before treatment
structure (smiles),measurement,setting,value
"CC(C)(C)c1cc(-c2cc(-c3ccc(C(=O)O)cc3)ccc2OCCO)ccc1N1CCCC1 [Trifarotene, 3″-tert-Butyl-4′-(2-hydroxy-ethoxy)-4″-pyrrolidin-1-yl-[1,1′,3′,1″ ]terphenyl-4-carboxylic acid]",number of genes upregulated among the 67 genes regulated,"LINC01224, INA, GABRA4, PXMP4",four
same,number of genes uniquely downregulated (not in spontaneously resolving signature),"absolute fold change>2, genes of inflammatory cell infiltration and extracellular matrix reorganization",67 genes
same,"number of genes in common between acne lesion profile and trifarotene-treated lesion profile, all reversed",acne signature vs trifarotene signature,354 genes
same,Fold Change R3 vs L1: ADAM12 (226777_at),[1],−3.84
same,Fold Change R3 vs L1: ADAMDEC1 (206134_at),[1],−6.29
same,Fold Change R3 vs L1: APELA (1559280_a_at),[1],−2.70
same,Fold Change R3 vs L1: ARHGAP9 (224451_x_at),[1],−2.14
same,Fold Change R3 vs L1: BCAT1 (214452_at),[1],−3.66
same,Fold Change R3 vs L1: BIRC3 (210538_s_at),[1],−2.23
same,Fold Change R3 vs L1: CBLN2 (242301_at),[1],−2.61
same,Fold Change R3 vs L1: CCDC71L (229521_at),[1],−2.26
same,Fold Change R3 vs L1: CCNA1 (205899_at),[1],−3.55
same,Fold Change R3 vs L1: CD37 (204192_at),[1],−2.13
same,Fold Change R3 vs L1: CD69 (209795_at),[1],−2.10
same,Fold Change R3 vs L1: CD80 (1554519_at),[1],−4.03
same,Fold Change R3 vs L1: CD84 (230391_at),[1],−2.57
same,Fold Change R3 vs L1: CLEC4A (221724_s_at),[1],−2.32
same,Fold Change R3 vs L1: CTLA4 (236341_at),[1],−2.54
same,Fold Change R3 vs L1: CYTH4 (219183_s_at),[1],−2.36
same,Fold Change R3 vs L1: DMXL2 (215761_at),[1],−2.35
same,Fold Change R3 vs L1: EVI2B (211742_s_at),[1],−2.35
same,Fold Change R3 vs L1: FERMT3 (223303_at),[1],−2.12
same,Fold Change R3 vs L1: FNDC3B (229865_at),[1],−2.35
same,Fold Change R3 vs L1: GABRA4 (208463_at),[1],2.26
same,Fold Change R3 vs L1: GASK1B (219872_at),[1],−2.30
same,Fold Change R3 vs L1: GLIPR1 (204222_s_at),[1],−2.48
same,Fold Change R3 vs L1: GLIPR2 (225604_s_at),[1],−2.24
same,Fold Change R3 vs L1: GLIS3 (229435_at),[1],−3.07
same,Fold Change R3 vs L1: GPRIN3 (1556698_a_at),[1],−2.27
same,Fold Change R3 vs L1: HLA-DPA1 (213537_at),[1],−2.14
same,Fold Change R3 vs L1: HP (206697_s_at),[1],−2.99
same,Fold Change R3 vs L1: IL2RG (204116_at),[1],−2.28
same,Fold Change R3 vs L1: IL18BP (222868_s_at),[1],−2.37
same,Fold Change R3 vs L1: INA (204465_s_at),[1],2.34
same,Fold Change R3 vs L1: IRF8 (204057_at),[1],−2.02
same,Fold Change R3 vs L1: ITGAX (210184_at),[1],−2.85
same,Fold Change R3 vs L1: KLHL6 (1555275_a_at),[1],−3.05
same,Fold Change R3 vs L1: LINC01224 (233142_at),[1],3.51
same,Fold Change R3 vs L1: LOXL2 (202998_s_at),[1],−2.18
same,Fold Change R3 vs L1: LPXN (216250_s_at),[1],−2.25
same,Fold Change R3 vs L1: LY86 (205859_at),[1],−2.18
same,Fold Change R3 vs L1: MMP12 (204580_at),[1],−11.13
same,Fold Change R3 vs L1: MMP13 (205959_at),[1],−4.3
same,Fold Change R3 vs L1: MMP19 (204575_s_at),[1],−2.71
same,Fold Change R3 vs L1: MSR1 (214770_at),[1],−2.45
same,Fold Change R3 vs L1: NCEH1 (225847_at),[1],−2.70
same,Fold Change R3 vs L1: NRP2 (223510_at),[1],−2.46
same,Fold Change R3 vs L1: P2RY8 (229686_at),[1],−2.23
same,Fold Change R3 vs L1: P2RY10 (236280_at),[1],−2.05
same,Fold Change R3 vs L1: PAPSS2 (203060_s_at),[1],−2.60
same,Fold Change R3 vs L1: PARVG (223562_at),[1],−2.23
same,Fold Change R3 vs L1: PTHLH (211756_at),[1],−2.55
same,Fold Change R3 vs L1: PTPN22 (236539_at),[1],−2.27
same,Fold Change R3 vs L1: PTPRO (208121_s_at),[1],−2.26
same,Fold Change R3 vs L1: PXMP4 (238746_at),[1],2.14
same,Fold Change R3 vs L1: RAC2 (207419_s_at),[1],−2.03
same,Fold Change R3 vs L1: RHOH (204951_at),[1],−2.57
same,Fold Change R3 vs L1: SELP (206049_at),[1],−2.10
same,Fold Change R3 vs L1: SELPLG (209879_at),[1],−2.06
same,Fold Change R3 vs L1: SH2B3 (203320_at),[1],−2.26
same,Fold Change R3 vs L1: SIRPB1 (206934_at),[1],−2.45
same,Fold Change R3 vs L1: SLAMF7 (219159_s_at),[1],−2.49
same,Fold Change R3 vs L1: SLC6A14 (219795_at),[1],−2.04
same,Fold Change R3 vs L1: SNAP25 (202508_s_at),[1],−2.40
same,Fold Change R3 vs L1: TRG-AS1 (239237_at),[1],−2.33
same,Fold Change R3 vs L1: TYROBP (204122_at),[1],−2.39
same,Fold Change R3 vs L1: VCAN (215646_s_at),[1],−2.43
same,Fold Change R3 vs L1: XCL1 (206366_x_at),[1],−2.02

# Source: patent US20240058268A1, “METHODS OF TREATING SKIN DISORDERS” (priority 2021, published 2024)
